{"source": "patent US20250179055A1", "about": "“Substituted 2-(pyrrolidine-3-yl)acetic acid derivative, preparation method and use thereof” (INNOVSTONE THERAPEUTICS LIMITED, priority 2023, published 2025)", "key": {"[1]": {"target": "Lp(a) assembly in HepG2 cells overexpressing ApoA protein (Homo sapiens (Human), UniProt P08519)", "sequence (P08519 20-2040)": "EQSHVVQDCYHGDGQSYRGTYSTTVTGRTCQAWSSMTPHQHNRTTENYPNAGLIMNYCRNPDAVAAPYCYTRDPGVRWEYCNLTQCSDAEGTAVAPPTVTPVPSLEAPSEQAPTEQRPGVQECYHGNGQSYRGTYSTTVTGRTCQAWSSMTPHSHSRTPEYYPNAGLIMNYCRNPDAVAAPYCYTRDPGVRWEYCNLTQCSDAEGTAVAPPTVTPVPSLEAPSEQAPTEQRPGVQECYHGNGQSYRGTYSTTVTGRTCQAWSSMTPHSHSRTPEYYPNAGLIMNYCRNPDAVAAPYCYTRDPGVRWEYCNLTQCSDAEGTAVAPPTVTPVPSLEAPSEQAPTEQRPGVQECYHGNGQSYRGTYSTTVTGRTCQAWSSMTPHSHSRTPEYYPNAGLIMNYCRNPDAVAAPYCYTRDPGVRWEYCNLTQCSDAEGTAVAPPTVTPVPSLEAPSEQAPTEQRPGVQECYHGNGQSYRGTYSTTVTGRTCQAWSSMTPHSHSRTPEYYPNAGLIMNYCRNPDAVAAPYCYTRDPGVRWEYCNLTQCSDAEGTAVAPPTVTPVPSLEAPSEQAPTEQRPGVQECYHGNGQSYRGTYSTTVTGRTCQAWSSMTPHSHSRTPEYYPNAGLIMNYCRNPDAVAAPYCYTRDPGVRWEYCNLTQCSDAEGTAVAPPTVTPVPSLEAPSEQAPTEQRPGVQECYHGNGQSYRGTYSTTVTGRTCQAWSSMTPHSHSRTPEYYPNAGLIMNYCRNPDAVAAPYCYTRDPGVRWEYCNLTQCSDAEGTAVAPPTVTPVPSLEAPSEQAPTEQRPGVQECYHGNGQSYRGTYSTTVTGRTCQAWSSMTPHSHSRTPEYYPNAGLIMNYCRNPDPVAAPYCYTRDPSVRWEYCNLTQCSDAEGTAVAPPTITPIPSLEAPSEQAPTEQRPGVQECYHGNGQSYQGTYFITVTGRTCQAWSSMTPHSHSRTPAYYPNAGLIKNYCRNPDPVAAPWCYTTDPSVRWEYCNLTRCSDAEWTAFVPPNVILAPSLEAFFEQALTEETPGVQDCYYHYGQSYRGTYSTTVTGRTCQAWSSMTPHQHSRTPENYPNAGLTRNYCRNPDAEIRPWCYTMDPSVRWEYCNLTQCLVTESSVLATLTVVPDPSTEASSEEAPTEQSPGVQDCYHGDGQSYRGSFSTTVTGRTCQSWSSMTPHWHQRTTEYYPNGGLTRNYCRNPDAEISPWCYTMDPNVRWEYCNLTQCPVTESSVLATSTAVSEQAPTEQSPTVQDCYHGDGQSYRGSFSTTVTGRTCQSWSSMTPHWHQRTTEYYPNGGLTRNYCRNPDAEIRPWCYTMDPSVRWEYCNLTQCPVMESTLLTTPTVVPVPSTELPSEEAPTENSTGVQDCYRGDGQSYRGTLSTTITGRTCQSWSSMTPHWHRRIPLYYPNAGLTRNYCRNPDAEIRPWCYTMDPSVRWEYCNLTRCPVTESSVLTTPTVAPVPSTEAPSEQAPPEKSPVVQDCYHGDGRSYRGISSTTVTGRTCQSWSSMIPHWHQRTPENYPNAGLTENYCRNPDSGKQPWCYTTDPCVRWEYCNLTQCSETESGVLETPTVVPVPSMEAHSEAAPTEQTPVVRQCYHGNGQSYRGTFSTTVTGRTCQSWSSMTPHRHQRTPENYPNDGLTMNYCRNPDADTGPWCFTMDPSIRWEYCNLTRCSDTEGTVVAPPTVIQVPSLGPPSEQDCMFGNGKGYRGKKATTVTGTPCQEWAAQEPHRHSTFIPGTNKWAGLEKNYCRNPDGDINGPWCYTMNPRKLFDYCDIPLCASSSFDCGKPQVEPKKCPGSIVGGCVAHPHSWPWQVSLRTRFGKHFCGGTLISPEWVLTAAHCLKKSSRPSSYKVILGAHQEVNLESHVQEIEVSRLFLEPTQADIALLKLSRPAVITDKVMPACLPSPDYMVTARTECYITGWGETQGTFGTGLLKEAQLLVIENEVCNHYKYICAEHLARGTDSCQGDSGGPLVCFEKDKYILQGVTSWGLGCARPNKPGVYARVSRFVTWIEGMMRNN", "test": "ELISA assay on screening Lp(a) assembly inhibition", "type": "cell-based", "conditions": "HepG2 cells overexpressing ApoA protein, 24 h, ELISA of supernatant", "how_it_was_run": "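HepG2 cells overexpressing ApoA treated with diluted compounds for 24 h at 37 °C, 5% CO2; EACA (10 μL of 1.5 M) added before harvesting supernatant. Secreted Lp(a) quantified by sandwich ELISA; IC50 from four-parameter Hill fit of % inhibition versus concentration.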"}, "serum Lp(a)": {"system": "serum Lp(a)", "test": "Humanized mouse Lp(a) inhibition test", "type": "in vivo, humanized Lp(a) transgenic mouse", "conditions": "blood 8 h after last dose, humanized Lp(a) mice", "protocol": "The in vivo pharmacodynamics of the compounds in reducing Lp(a) was evaluated in a humanized Lp(a) transgenic mouse model. Lp(a) mice were obtained by crossing mice expressing humanized apoB-100 with mice expressing humanized apo(a) containing 16 Kringle repeats. Female mice aged 8-9 weeks were selected for the test. Housing conditions: standard light cycle (12 h light/12 h dark), temperature 20-25° C., humidity 40-70%, free access to water and normal diet. is One day before the test, mice were divided into vehicle control group and test article group (n=5/group) according to body weight and baseline plasma Lp(a) concentration. Mice were orally administered with vehicle (normal saline, 10 mL/kg) or test compound (prepared with normal saline to 3 or 0.5 mg/mL, each mouse received 10 mL/kg), once daily (9:00 am) for 3 consecutive days, and blood was collected to determine the change of serum Lp(a). Eight hours after the last dose, 10 μL of blood was collected from the tail vein and transferred to a 1.5 mL centrifuge tube containing 90 μL of normal saline, mixed well, and left to stand on ice for 30 min. The above samples were centrifuged at 4° C., 3000 rpm for 10 min, and the supernatant was collected and placed on ice. The Lp(a) concentration in the supernatant was measured by double-antibody sandwich ELISA using an anti-apo(a) capture antibody and an HRP-conjugated anti-ApoB detection antibody, with TMB for color development. The reaction was stopped with 1 N sulfuric acid, and the OD value was read at 450 nm on a Tecan microplate reader. Inhibition rate was calculated for each dosing group. Inhibition rate (%)=(vehicle control group Lp(a) concentration or self pre-dose Lp(a) concentration post-dose Lp(a) concentration)/vehicle control group Lp(a) concentration or self pre-dose Lp(a) concentration*100."}, "[2]": {"conditions": "5 mg/kg oral once daily for 3 days"}}}
{"smiles": "O=C(O)[C@@H](Cc1cccc(CN(Cc2cccc(C[C@H](C(=O)O)[C@H]3CCNC3)c2)C(=O)COc2cccc(C[C@H](C(=O)O)[C@H]3CCNC3)c2)c1)[C@H]1CCNC1", "note": "[Compound 95, (2S,2′S)-3,3′-((((2-(3-((S)-2-carboxy-2-((R)-pyrrolidin-3-yl)ethyl)phenoxy)acetyl)azanediyl)bis(methylene))bis(3,1-phenylene))bis(2-((R)-pyrrolidin-3-yl)propanoic acid)]", "values": [{"measurement": "IC50", "setting": "[1]", "value": 0.68, "unit": "nM"}, {"measurement": "Lp(a) Inhibition Rate", "setting": "serum Lp(a); 30 mg/kg oral once daily for 3 days", "value": 95, "unit": "%"}]}
{"smiles": "O=C(O)[C@@H](Cc1cccc(CCN(CCOc2cccc(C[C@H](C(=O)O)[C@H]3CCNC3)c2)C(=O)Cc2cccc(C[C@H](C(=O)O)[C@H]3CCNC3)c2)c1)[C@H]1CCNC1", "note": "[Compound 100, (S)-3-(3-(2-((3-((S)-2-carboxy-2-((R)-pyrrolidin-3-yl)ethyl)phenethyl)(2-(3-((S)-2-carboxy-2-((R)-pyrrolidin-3-yl)ethyl)phenoxy)ethyl)amino)-2-oxoethyl)phenyl)-2-((R)-pyrrolidin-3-yl)propanoic acid]", "values": [{"measurement": "IC50", "setting": "[1]", "value": 1.12, "unit": "nM"}, {"measurement": "Lp(a) Inhibition Rate", "setting": "serum Lp(a); [2]", "value": 86, "unit": "%"}]}
{"smiles": "O=C(O)[C@@H](Cc1cccc(CC(=O)N(CCOc2cccc(C[C@H](C(=O)O)[C@H]3CCNC3)c2)CCOc2cccc(C[C@H](C(=O)O)[C@H]3CCNC3)c2)c1)[C@H]1CCNC1", "note": "[Compound 111, (2S,2′S)-3,3′-(((((2-(3-((S)-2-carboxy-2-((R)-pyrrolidin-3-yl)ethyl)phenyl)acetyl)azanediyl)bis(ethane-2,1-diyl))bis(oxy))bis(3,1-phenylene))bis(2-((R)-pyrrolidin-3-yl)propanoic acid)]", "values": [{"measurement": "IC50", "setting": "[1]", "value": 1.02, "unit": "nM"}, {"measurement": "Lp(a) Inhibition Rate", "setting": "serum Lp(a); [2]", "value": 92, "unit": "%"}]}
{"smiles": "O=C(O)[C@@H](Cc1cccc(OCCN(CCOc2cccc(C[C@H](C(=O)O)[C@H]3CCNC3)c2)C(=O)COc2cccc(C[C@H](C(=O)O)[C@H]3CCNC3)c2)c1)[C@H]1CCNC1", "note": "[Compound 113, (2S,2′S)-3,3′-(((((2-(3-((S)-2-carboxy-2-((R)-pyrrolidin-3-yl)ethyl)phenoxy)acetyl)azanediyl)bis(ethane-2,1-diyl))bis(oxy))bis(3,1-phenylene))bis(2-((R)-pyrrolidin-3-yl)propanoic acid)]", "values": [{"measurement": "IC50", "setting": "[1]", "value": 1.17, "unit": "nM"}, {"measurement": "Lp(a) Inhibition Rate", "setting": "serum Lp(a); [2]", "value": 79, "unit": "%"}]}
{"smiles": "O=C(O)[C@@H](Cc1cccc(CN(CCOc2cccc(C[C@H](C(=O)O)[C@H]3CCNC3)c2)C(=O)Sc2cccc(C[C@H](C(=O)O)[C@H]3CCNC3)c2)c1)[C@H]1CCNC1", "note": "[Compound 138, (S)-3-(3-(2-((3-((S)-2-carboxy-2-((R)-pyrrolidin-3-yl)ethyl)benzyl)(((3-((S)-2-carboxy-2-((R)-pyrrolidin-3-yl)ethyl)phenyl)thio)carbonyl)amino)ethoxy)phenyl)-2-((R)-pyrrolidin-3-yl)propanoic acid]", "values": [{"measurement": "IC50", "setting": "[1]", "value": 2, "unit": "nM"}, {"measurement": "Lp(a) Inhibition Rate", "setting": "serum Lp(a); [2]", "value": 88, "unit": "%"}]}
{"smiles": "O=C(O)[C@@H](Cc1cc(F)cc(CC(=O)N(CCOc2cc(F)cc(C[C@H](C(=O)O)[C@H]3CCNC3)c2)Cc2cc(F)cc(C[C@H](C(=O)O)[C@H]3CCNC3)c2)c1)[C@H]1CCNC1", "note": "[Compound 152, (S)-3-(3-(2-((3-((S)-2-carboxy-2-((R)-pyrrolidin-3-yl)ethyl)-5-fluorobenzyl)(2-(3-((S)-2-carboxy-2-((R)-pyrrolidin-3-yl)ethyl)-5-fluorophenoxy)ethyl)amino)-2-oxoethyl)-5-fluorophenyl)-2-((R)-pyrrolidin-3-yl)propanoic acid]", "values": [{"measurement": "IC50", "setting": "[1]", "value": 1.26, "unit": "nM"}, {"measurement": "Lp(a) Inhibition Rate", "setting": "serum Lp(a); [2]", "value": 90, "unit": "%"}]}
{"smiles": "O=C(O)[C@@H](Cc1cccc(CCN(CCOCc2cccc(C[C@H](C(=O)O)[C@H]3CCNC3)c2)C(=O)Cc2cccc(C[C@H](C(=O)O)[C@H]3CCNC3)c2)c1)[C@H]1CCNC1", "note": "[Compound 161, (S)-3-(3-(2-((2-((3-((S)-2-carboxy-2-((R)-pyrrolidin-3-yl)ethyl)benzyl)oxy)ethyl)(3-((S)-2-carboxy-2-((R)-pyrrolidin-3-yl)ethyl)phenethyl)amino)-2-oxoethyl)phenyl)-2-((R)-pyrrolidin-3-yl)propanoic acid]", "values": [{"measurement": "IC50", "setting": "[1]", "value": 1.89, "unit": "nM"}, {"measurement": "Lp(a) Inhibition Rate", "setting": "serum Lp(a); [2]", "value": 83, "unit": "%"}]}
{"smiles": "O=C(O)[C@@H](Cc1cccc(OCCN(CCOc2cccc(C[C@H](C(=O)O)[C@H]3CCNC3)c2)C(=O)Oc2cccc(C[C@H](C(=O)O)[C@H]3CCNC3)c2)c1)[C@H]1CCNC1", "note": "[Compound 163, (2S,2′S)-3,3′-((((((3-((S)-2-carboxy-2-((R)-pyrrolidin-3-yl)ethyl)phenoxy)carbonyl)azanediyl)bis(ethane-2,1-diyl))bis(oxy))bis(3,1-phenylene))bis(2-((R)-pyrrolidin-3-yl)propanoic acid)]", "values": [{"measurement": "Lp(a) Inhibition Rate", "setting": "serum Lp(a); [2]", "value": 81, "unit": "%"}]}
{"smiles": "COc1cc(CC(=O)N(CCOc2cc(C[C@H](C(=O)O)[C@H]3CCNC3)cc(OC)c2)Cc2cc(C[C@H](C(=O)O)[C@H]3CCNC3)cc(OC)c2)cc(C[C@H](C(=O)O)[C@H]2CCNC2)c1", "note": "[Compound 176, (S)-3-(3-(2-((3-((S)-2-carboxy-2-((R)-pyrrolidin-3-yl)ethyl)-5-methoxybenzyl)(2-(3-((S)-2-carboxy-2-((R)-pyrrolidin-3-yl)ethyl)-5-methoxyphenoxy)ethyl)amino)-2-oxoethyl)-5-methoxyphenyl)-2-((R)-pyrrolidin-3-yl)propanoic acid]", "values": [{"measurement": "IC50", "setting": "[1]", "value": 1.81, "unit": "nM"}, {"measurement": "Lp(a) Inhibition Rate", "setting": "serum Lp(a); [2]", "value": 78, "unit": "%"}]}
{"smiles": "O=C(O)[C@@H](Cc1cccc(CN(CCOc2cccc(C[C@H](C(=O)O)[C@H]3CCNC3)c2)C(=O)Cc2cc(C[C@H](C(=O)O)[C@H]3CCNC3)cs2)c1)[C@H]1CCNC1", "note": "[Compound 178, ((S)-3-(5-(2-((3-((S)-2-carboxy-2-((R)-pyrrolidin-3-yl)ethyl)benzyl)(2-(3-((S)-2-carboxy-2-((R)-pyrrolidin-3-yl)ethyl)phenoxy)ethyl)amino)-2-oxoethyl)thiophen-3-yl)-2-((R)-pyrrolidin-3-yl)propanoic acid)]", "values": [{"measurement": "Lp(a) Inhibition Rate", "setting": "serum Lp(a); [2]", "value": 84, "unit": "%"}]}
{"smiles": "O=C(O)[C@@H](Cc1cccc(OCCN(Cc2cc(C[C@H](C(=O)O)[C@H]3CCNC3)cs2)C(=O)Cc2cc(C[C@H](C(=O)O)[C@H]3CCNC3)cs2)c1)[C@H]1CCNC1", "note": "[Compound 180, (S)-3-(5-(2-((2-(3-((S)-2-carboxy-2-((R)-pyrrolidin-3-yl)ethyl)phenoxy)ethyl)((4-((S)-2-carboxy-2-((R)-pyrrolidin-3-yl)ethyl)thiophen-2-yl)methyl)amino)-2-oxoethyl)thiophen-3-yl)-2-((R)-pyrrolidin-3-yl)propanoic acid]", "values": [{"measurement": "Lp(a) Inhibition Rate", "setting": "serum Lp(a); [2]", "value": 80, "unit": "%"}]}
{"smiles": "[2H]C([2H])(c1cccc(CC(=O)N(CCOc2cccc(C([2H])([2H])[C@H](C(=O)O)[C@H]3CCNC3)c2)Cc2cccc(C([2H])([2H])[C@H](C(=O)O)[C@H]3CCNC3)c2)c1)[C@H](C(=O)O)[C@H]1CCNC1", "note": "[Compound 190, (S)-3-(3-(2-((3-((S)-2-carboxy-2-((R)-pyrrolidin-3-yl)ethyl-1,1-d2)benzyl)(2-(3-((S)-2-carboxy-2-((R)-pyrrolidin-3-yl)ethyl-1,1-d2)phenoxy)ethyl)amino)-2-oxoethyl)phenyl)-2-((R)-pyrrolidin-3-yl)propanoic-3,3-d2 acid]", "values": [{"measurement": "Lp(a) Inhibition Rate", "setting": "serum Lp(a); [2]", "value": 83, "unit": "%"}]}
{"smiles": "[2H]C([2H])(c1cccc(C[C@H](C(=O)O)[C@H]2CCNC2)c1)N(CCOc1cccc(C[C@H](C(=O)O)[C@H]2CCNC2)c1)C(=O)Cc1cccc(C[C@H](C(=O)O)[C@H]2CCNC2)c1", "note": "[Compound 193, (S)-3-(3-(2-((2-(3-((S)-2-carboxy-2-((R)-pyrrolidin-3-yl)ethyl)phenoxy)ethyl)((3-((S)-2-carboxy-2-((R)-pyrrolidin-3-yl)ethyl)phenyl)methyl-d2)amino)-2-oxoethyl)phenyl)-2-((R)-pyrrolidin-3-yl)propanoic acid]", "values": [{"measurement": "Lp(a) Inhibition Rate", "setting": "serum Lp(a); [2]", "value": 88, "unit": "%"}]}
